Laboratory results taken from patent US12209071B2, “Triazine derivatives for treating diseases relating to neurotrophins” (AlzeCure Pharma AB, priority 2018, dated 2025).
pEC50: −log10 of the molar value.

Columns and labels:
[1] = test system: ephrin type-B receptor 2 (EphB2); details: Suzuki et al., FEBS Open Bio 2016; cited from earlier work
TrkA = molecular target: T1, TrkA (Homo sapiens, UniProt P04629); test: Enzyme Fragment Complementation cell-based assay, TrkA; details: U2OS-cells over-expressing TrkA; ligand 10 ng/mL; 3 hours incubation
T1 construct: expressed in transfected cells; host or cells: U2OS
Text: (§1) A high throughput cell-based screen has been used to identify positive modulators of TrkA, TrkB and TrkC. The screen involves the use of cell-based assay overexpressing TrkA, TrkB or TrkC. The purpose of the assay is to identify compounds that modulate neurotrophin signalling (Forsell et al 2012). The assay can be used in inhibitor mode using a high concentration of ligand, in modulator mode using an intermediate concentration and in agonist mode using a low concentration of ligand.
(§2) The assay uses Enzyme Fragment Complementation (EFC) technique, which is a proximity-based assay. Briefly, cells used in this assay over-express two fusion proteins, i.e. the receptor, which can be either one of TrkA, TrkB, TrkC, IGF1R or FGFR1, fused to a small peptide of beta-galactosidase and an adaptor protein, i.e. SHC1 (or any other Trk-adaptor protein) fused to the major part of beta-galactosidase. […] The proximity between the small activating peptide on the receptor and the major part of beta-galactosidase on the adaptor protein leads to an active beta-galactosidase enzyme. The activation of the receptor is quantified by measuring the amount of active beta-galactosidase by its conversion of a non-luminescent substrate into a luminescent product.
(§3) U2OS-cells, over-expressing TrkA or TrkB or TrkC, are plated in 96- or 384-well plates and incubated overnight. Alternatively, cryopreserved HEK293-cells expressing IGFR1 or cryopreserved U2OS-cells expressing FGFR1 were plated in 96- or 384-well plates. On the following day, test compound was pre-mixed with ligand (NGF, BDNF, NT-3, IGF-1 or basic fibroblast growth factor (bFGF(FGF-2))) and the ligand-compound mixture is then added to the cells to yield a final ligand concentration of 10 ng/mL. After 3 hours of incubation at room temperature, the incubation is stopped by the addition of a beta-galactosidase substrate mixture containing detergents. The substrate mixture is incubated for 60 minutes at ambient temperature. The luminescence is thereafter read by the use of a plate reader.

TrkB = molecular target: T2, TrkB (Homo sapiens, UniProt Q16620); test: Enzyme Fragment Complementation cell-based assay, TrkB; details: U2OS-cells over-expressing TrkB; ligand 10 ng/mL; 3 hours incubation
T2 construct: expressed in transfected cells; host or cells: U2OS
Text: as §1, §2, §3

FGFR1 = molecular target: T3, FGFR1 (Homo sapiens, UniProt P11362); test: Enzyme Fragment Complementation cell-based assay, FGFR1; details: cryopreserved U2OS-cells expressing FGFR1; ligand 10 ng/mL; 3 hours incubation
T3 construct: expressed in transfected cells; host or cells: U2OS (cryopreserved)
Text: as §1, §2, §3

IGF1R = molecular target: T4, IGF1R (Homo sapiens, UniProt P08069); test: Enzyme Fragment Complementation cell-based assay, IGF1R; details: cryopreserved HEK293-cells expressing IGFR1; ligand 10 ng/mL; 3 hours incubation
T4 construct: expressed in transfected cells; host or cells: HEK293 (cryopreserved)
Text: as §1, §2, §3

TrkC = molecular target: T5, TrkC (Homo sapiens, UniProt Q16288); test: Enzyme Fragment Complementation cell-based assay, TrkC; details: U2OS-cells over-expressing TrkC; ligand 10 ng/mL; 3 hours incubation
T5 construct: expressed in transfected cells; host or cells: U2OS
Text: as §1, §2, §3

[2] = test system: mice treated with scopolamine; test: Passive avoidance task; assay type: in vivo; details: C57/Bl6 mice; s.c. once per day for 4 days prior to PA training; scopolamine 0.3 mg/kg s.c. 30 min prior to training; FIG. 1
Experimental: Passive avoidance (PA) is an aversive learning task based on classical (Pavlovian) fear conditioning that allows for analysis of both facilitation and impairment of memory function by adjusting the unconditioned stimulus, i.e. the electrical foot shock. Commonly a cognitive-impairing agent is administered to the animals to mimic the neurochemical disturbances present in various cognitive disorders e.g. cholinergic (scopolamine) and glutamatergic (MK-801) deficits.
Prior to testing, the animals are brought to the experimental room where they are allowed to habituate for 60 min. The test is conducted using a modified shuttle box with two communicating compartments of equal size with a small sliding door built into the separating wall and a stainless-steel bar floor. One of the compartments is not illuminated and thus black whereas the other compartment (the light one) is illuminated by an electric bulb, installed on the top of a plexiglass cover. The PA training is conducted in a single session. […] Latency to cross over into the dark compartment (training latency) is recorded. […] The latency to cross over into the dark compartment with all four feet is measured (retention latency) as well as time in bright compartment and a number of other relevant parameters (e.g. number of visits in the dark compartment). […]

T3 sequence (P11362 22-822): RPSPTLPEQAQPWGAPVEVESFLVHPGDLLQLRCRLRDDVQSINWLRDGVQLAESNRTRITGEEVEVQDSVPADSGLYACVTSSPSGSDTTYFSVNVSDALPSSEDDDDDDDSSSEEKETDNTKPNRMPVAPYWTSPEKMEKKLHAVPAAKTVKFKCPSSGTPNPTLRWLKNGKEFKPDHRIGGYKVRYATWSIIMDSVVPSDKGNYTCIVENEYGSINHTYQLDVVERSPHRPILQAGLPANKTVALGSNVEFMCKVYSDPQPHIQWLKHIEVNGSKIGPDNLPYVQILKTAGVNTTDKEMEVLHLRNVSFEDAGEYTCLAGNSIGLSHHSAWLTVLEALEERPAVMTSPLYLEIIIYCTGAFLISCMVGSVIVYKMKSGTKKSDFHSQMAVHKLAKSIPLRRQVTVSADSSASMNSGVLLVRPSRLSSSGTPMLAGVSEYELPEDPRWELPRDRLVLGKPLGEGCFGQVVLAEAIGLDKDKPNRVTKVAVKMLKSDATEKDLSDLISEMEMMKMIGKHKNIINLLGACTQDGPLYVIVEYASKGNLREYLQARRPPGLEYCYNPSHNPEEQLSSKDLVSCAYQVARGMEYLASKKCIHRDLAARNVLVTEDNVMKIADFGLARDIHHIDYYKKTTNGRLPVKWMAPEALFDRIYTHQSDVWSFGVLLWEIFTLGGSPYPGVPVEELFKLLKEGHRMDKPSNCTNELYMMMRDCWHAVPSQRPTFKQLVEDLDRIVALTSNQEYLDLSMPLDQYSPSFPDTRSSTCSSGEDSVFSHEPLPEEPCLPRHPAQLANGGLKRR
T4 sequence (P08069 31-736 limits assumed): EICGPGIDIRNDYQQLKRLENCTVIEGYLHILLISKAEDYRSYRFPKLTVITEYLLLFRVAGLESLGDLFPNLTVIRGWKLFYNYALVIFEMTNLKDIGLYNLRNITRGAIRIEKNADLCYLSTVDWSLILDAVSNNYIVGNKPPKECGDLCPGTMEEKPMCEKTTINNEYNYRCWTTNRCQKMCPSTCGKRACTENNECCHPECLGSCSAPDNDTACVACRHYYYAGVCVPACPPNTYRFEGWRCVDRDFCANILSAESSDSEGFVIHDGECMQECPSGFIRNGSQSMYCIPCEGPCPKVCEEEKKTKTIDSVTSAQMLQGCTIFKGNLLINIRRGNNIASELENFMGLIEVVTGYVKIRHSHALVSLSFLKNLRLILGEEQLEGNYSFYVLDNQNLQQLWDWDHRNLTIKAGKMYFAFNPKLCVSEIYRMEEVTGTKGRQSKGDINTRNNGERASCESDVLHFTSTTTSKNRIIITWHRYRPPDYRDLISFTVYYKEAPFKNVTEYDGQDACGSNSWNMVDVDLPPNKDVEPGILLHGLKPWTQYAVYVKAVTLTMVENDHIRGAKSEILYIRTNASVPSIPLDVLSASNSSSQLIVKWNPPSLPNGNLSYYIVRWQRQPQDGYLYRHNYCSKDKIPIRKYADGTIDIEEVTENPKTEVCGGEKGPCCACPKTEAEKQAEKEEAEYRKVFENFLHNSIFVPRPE
T4 sequence (P08069 741-1367 limits assumed): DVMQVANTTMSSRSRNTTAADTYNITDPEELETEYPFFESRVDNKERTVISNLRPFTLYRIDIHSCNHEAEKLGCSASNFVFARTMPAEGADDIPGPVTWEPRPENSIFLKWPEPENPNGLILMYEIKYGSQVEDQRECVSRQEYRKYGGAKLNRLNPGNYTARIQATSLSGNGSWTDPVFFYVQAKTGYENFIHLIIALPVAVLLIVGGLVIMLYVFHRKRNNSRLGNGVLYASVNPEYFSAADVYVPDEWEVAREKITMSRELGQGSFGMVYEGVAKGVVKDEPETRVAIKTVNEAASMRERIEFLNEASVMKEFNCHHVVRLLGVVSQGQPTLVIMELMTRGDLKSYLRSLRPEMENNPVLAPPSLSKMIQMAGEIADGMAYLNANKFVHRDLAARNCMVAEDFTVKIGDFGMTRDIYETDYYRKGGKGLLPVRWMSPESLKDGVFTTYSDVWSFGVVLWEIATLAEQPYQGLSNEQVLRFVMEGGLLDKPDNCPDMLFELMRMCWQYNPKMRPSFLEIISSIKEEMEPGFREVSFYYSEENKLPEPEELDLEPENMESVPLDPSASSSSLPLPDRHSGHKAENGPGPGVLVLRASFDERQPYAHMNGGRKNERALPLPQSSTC
T5 sequence (Q16288 32-839): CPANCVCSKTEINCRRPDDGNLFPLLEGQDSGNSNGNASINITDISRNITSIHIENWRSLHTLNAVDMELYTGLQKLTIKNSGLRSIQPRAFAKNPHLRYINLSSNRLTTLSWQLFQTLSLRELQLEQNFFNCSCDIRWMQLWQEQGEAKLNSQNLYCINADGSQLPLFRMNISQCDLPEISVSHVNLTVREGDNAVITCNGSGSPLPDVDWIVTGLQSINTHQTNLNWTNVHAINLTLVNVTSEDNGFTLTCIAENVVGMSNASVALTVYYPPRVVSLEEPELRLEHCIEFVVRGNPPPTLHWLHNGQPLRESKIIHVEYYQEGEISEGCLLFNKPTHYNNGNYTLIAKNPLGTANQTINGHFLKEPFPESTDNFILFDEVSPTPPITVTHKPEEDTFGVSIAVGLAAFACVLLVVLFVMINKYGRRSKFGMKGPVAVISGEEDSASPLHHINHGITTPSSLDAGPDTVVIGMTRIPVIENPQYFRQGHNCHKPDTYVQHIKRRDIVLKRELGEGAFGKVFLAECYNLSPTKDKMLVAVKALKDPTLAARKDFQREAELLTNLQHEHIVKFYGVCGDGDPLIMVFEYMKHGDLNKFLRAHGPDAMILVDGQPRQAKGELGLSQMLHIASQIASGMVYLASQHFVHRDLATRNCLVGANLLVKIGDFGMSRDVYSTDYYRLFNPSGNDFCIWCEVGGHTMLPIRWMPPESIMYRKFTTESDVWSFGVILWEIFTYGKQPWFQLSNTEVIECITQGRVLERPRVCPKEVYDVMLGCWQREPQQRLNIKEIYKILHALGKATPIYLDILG
T1 sequence (P04629 33-796): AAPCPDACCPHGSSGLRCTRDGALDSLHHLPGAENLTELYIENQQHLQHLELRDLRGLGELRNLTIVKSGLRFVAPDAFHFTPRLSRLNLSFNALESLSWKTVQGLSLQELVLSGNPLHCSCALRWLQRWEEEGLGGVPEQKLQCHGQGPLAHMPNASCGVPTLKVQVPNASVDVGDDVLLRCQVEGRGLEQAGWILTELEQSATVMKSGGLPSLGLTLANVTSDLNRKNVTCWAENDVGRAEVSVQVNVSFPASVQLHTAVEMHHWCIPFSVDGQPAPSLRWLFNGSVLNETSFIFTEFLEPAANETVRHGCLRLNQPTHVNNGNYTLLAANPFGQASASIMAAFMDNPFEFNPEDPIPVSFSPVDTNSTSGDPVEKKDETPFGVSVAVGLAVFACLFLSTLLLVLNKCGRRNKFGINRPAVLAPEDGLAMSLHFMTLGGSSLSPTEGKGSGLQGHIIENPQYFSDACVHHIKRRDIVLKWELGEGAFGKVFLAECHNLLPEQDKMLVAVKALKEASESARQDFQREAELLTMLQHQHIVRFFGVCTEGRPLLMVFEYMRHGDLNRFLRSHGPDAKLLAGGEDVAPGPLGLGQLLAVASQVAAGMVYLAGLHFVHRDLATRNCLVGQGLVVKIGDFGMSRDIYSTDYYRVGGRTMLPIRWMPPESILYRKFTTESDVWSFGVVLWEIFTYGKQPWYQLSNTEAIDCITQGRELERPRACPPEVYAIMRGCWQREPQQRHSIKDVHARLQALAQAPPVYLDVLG
T2 sequence (Q16620 32-822): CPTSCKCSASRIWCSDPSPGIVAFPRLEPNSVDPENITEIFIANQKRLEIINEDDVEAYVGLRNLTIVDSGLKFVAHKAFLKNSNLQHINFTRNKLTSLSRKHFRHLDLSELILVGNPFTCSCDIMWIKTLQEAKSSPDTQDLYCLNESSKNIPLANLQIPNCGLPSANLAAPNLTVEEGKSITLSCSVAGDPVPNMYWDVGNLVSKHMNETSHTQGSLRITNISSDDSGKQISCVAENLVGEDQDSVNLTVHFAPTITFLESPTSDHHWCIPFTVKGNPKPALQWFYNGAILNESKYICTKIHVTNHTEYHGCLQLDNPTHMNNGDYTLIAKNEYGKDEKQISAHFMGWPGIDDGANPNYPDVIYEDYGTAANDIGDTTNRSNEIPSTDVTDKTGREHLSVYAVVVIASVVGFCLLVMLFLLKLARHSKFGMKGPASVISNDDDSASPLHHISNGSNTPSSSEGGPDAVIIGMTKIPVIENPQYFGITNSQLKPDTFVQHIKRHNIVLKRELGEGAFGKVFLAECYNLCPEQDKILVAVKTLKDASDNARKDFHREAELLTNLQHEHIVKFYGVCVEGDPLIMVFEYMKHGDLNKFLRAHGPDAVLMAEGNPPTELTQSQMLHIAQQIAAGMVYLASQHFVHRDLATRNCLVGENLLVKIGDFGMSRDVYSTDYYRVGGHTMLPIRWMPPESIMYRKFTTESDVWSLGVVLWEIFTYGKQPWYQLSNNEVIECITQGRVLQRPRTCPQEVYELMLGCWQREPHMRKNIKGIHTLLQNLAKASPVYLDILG

Cc1cc(-n2c(=O)[nH]c(=O)n(C)c2=O)ccc1Oc1ccc(SC(F)(F)F)cc1 [toltrazuril, 1-methyl-3-(3-methyl-4-{4-[(trifluoromethyl)sulfanyl]phenoxy}phenyl)-1,3,5-triazinane-2,4,6-trione]
inhibition of binding of β-amyloid oligomers to EphB2 [1]: 30%

COc1cccc(-n2c(=O)[nH]c(=O)n(-c3ccc(Oc4ccccc4)cc3)c2=O)c1 [Example 4, 1-(3-methoxyphenyl)-3-(4-phenoxyphenyl)-1,3,5-triazinane-2,4,6-trione]
pEC50 (TrkA): 6.08 | pEC50 (TrkB): 6.02 | pEC50 (FGFR1): 6.24 | pEC50 (IGF1R): 6.08

O=c1[nH]c(=O)n(-c2ccc(Oc3ccccc3)cc2)c(=O)n1-c1ccccc1 [Example 1, 1-(4-phenoxyphenyl)-3-phenyl-1,3,5-triazinane-2,4,6-trione]
pEC50 (TrkC): 5.85 | pEC50 (TrkA): 5.89 | pEC50 (TrkB): 5.85 | pEC50 (FGFR1): 6.05 | pEC50 (IGF1R): 5.74

Cc1cc(-n2c(=O)[nH]c(=O)n(-c3ccccc3)c2=O)ccc1Oc1ccccc1 [Example 5, 1-(3-methyl-4-phenoxyphenyl)-3-phenyl-1,3,5-triazinane-2,4,6-trione]
retention latency within the bright area (cognitive function) [2]: increased retention latency | pEC50 (TrkA): 6.47 | pEC50 (TrkB): 6.41 | pEC50 (FGFR1): 6.54 | pEC50 (IGF1R): 6.60

N#Cc1cc(-n2c(=O)[nH]c(=O)n(-c3ccccc3)c2=O)ccc1Oc1ccccc1 [Example 12, 2-phenoxy-5-(2,4,6-trioxo-3-phenyl-1,3,5-triazinan-1-yl)benzonitrile]
pEC50 (TrkA): 5.23 | pEC50 (TrkB): 5.62 | pEC50 (FGFR1): 5.33

O=c1[nH]c(=O)n(-c2ccc(Oc3ccc(Cl)cc3)cc2)c(=O)n1-c1ccccc1 [Example 7, 1-[4-(4-chlorophenoxy)phenyl]-3-phenyl-1,3,5-triazinane-2,4,6-trione]
pEC50 (TrkA): 5.41 | pEC50 (IGF1R): 5.59

COc1cc(-n2c(=O)[nH]c(=O)n(-c3ccccc3)c2=O)ccc1Oc1ccccc1 [Example 11, 1-(3-methoxy-4-phenoxyphenyl)-3-phenyl-1,3,5-triazinane-2,4,6-trione]
pEC50 (TrkA): 6.49 | pEC50 (TrkB): 6.35 | pEC50 (FGFR1): 6.47 | pEC50 (IGF1R): 6.66

N#Cc1ccc(Oc2ccc(-n3c(=O)[nH]c(=O)n(-c4ccccc4)c3=O)cc2)cc1 [Example 8, 4-[4-(2,4,6-trioxo-3-phenyl-1,3,5-triazinan-1-yl)phenoxy]benzonitrile]
pEC50 (TrkA): 5.80 | pEC50 (IGF1R): 5.66

CCOc1cc(-n2c(=O)[nH]c(=O)n(C)c2=O)ccc1Oc1ccccc1 [Example 21, 1-(3-ethoxy-4-phenoxyphenyl)-3-methyl-1,3,5-triazinane-2,4,6-trione]
pEC50 (TrkC): 5.92 | pEC50 (TrkA): 5.68 | pEC50 (TrkB): 5.64

O=c1[nH]c(=O)n(-c2ccc(OCc3ccccc3)cc2)c(=O)n1-c1ccccc1 [Example 6, 1-[4-(benzyloxy)phenyl]-3-phenyl-1,3,5-triazinane-2,4,6-trione]
pEC50 (TrkA): 5.36 | pEC50 (IGF1R): 5.36

Cc1cc(-n2c(=O)[nH]c(=O)n(-c3cnn(-c4ccccc4)c3)c2=O)ccc1Oc1ccccc1 [Example 68, 1-(3-methyl-4-phenoxyphenyl)-3-(1-phenyl-1H-pyrazol-4-yl)-1,3,5-triazinane-2,4,6-trione]
pEC50 (TrkC): 5.96 | pEC50 (TrkA): 6.64 | pEC50 (TrkB): 6.44

Cc1ccc(-n2c(=O)[nH]c(=O)n(-c3ccc(Oc4ccccc4)c(C)c3)c2=O)cc1 [Example 41, 1-(3-methyl-4-phenoxyphenyl)-3-(4-methylphenyl)-1,3,5-triazinane-2,4,6-trione]
pEC50 (TrkC): 6.85 | pEC50 (TrkA): 6.60 | pEC50 (TrkB): 6.68

Cc1ccc(-n2c(=O)[nH]c(=O)n(-c3ccc(Oc4ccccc4)c(C)c3)c2=O)s1 [Example 40, 1-(3-methyl-4-phenoxyphenyl)-3-(5-methylthiophen-2-yl)-1,3,5-triazinane-2,4,6-trione]
pEC50 (TrkC): 6.85 | pEC50 (TrkA): 6.59 | pEC50 (TrkB): 6.55

O=c1[nH]c(=O)n(-c2ccc(N3CCOCC3)cc2)c(=O)n1-c1ccc(Oc2ccccc2)cc1 [Example 10, 1-[4-(morpholin-4-yl)phenyl]-3-(4-phenoxyphenyl)-1,3,5-triazinane-2,4,6-trione]
pEC50 (TrkA): 5.96 | pEC50 (TrkB): 5.66 | pEC50 (FGFR1): 5.55

O=c1[nH]c(=O)n(-c2ccc(Nc3ccccc3)cc2)c(=O)n1-c1ccccc1 [Example 20, 1-phenyl-3-[4-(phenylamino)phenyl]-1,3,5-triazinane-2,4,6-trione]
pEC50 (TrkC): 5.49 | pEC50 (TrkA): 5.16 | pEC50 (TrkB): 5.05

O=c1[nH]c(=O)n(-c2ccc(Oc3ccccc3)c(Cl)c2)c(=O)n1-c1ccccc1 [Example 39, 1-(3-chloro-4-phenoxyphenyl)-3-phenyl-1,3,5-triazinane-2,4,6-trione]
pEC50 (TrkC): 6.06 | pEC50 (TrkA): 5.85 | pEC50 (TrkB): 6.17

COCCOc1cc(-n2c(=O)[nH]c(=O)n(-c3ccc(C)cc3)c2=O)ccc1Oc1ccccc1 [Example 56, 1-[3-(2-methoxyethoxy)-4-phenoxyphenyl]-3-(4-methylphenyl)-1,3,5-triazinane-2,4,6-trione]
pEC50 (TrkC): 6.77 | pEC50 (TrkA): 6.54 | pEC50 (TrkB): 6.96

COc1cc(Oc2ccccc2)ccc1-n1c(=O)[nH]c(=O)n(-c2ccccc2)c1=O [Example 9, 1-(2-methoxy-4-phenoxyphenyl)-3-phenyl-1,3,5-triazinane-2,4,6-trione]
pEC50 (TrkA): 6.64 | pEC50 (TrkB): 6.57 | pEC50 (FGFR1): 6.77 | pEC50 (IGF1R): 6.57
